Assay results published in ChEMBL document CHEMBL1145543, “X-ray snapshot of the mechanism of inactivation of human neutrophil elastase by 1,2,5-thiadiazolidin-3-one 1,1-dioxide derivatives” (J Med Chem, 2008).
pKi: −log10 of the molar value.

Tests used:
Neutrophil elastase = biological target: T1, Neutrophil elastase (Homo sapiens, UniProt P08246); assay: Inhibition human neutrophil elastase
T1 sequence (P08246 whole entry): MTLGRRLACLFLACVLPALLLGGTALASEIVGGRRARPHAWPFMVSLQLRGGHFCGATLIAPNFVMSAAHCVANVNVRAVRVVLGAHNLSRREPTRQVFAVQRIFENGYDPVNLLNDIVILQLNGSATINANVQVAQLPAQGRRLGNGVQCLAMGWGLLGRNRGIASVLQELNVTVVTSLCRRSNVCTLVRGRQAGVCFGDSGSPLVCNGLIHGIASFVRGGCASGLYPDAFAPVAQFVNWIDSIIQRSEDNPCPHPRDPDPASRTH

Bos taurus = species: Bos taurus; assay: Inhibition of bovine trypsin; details: TDE = time-dependent effect
[1] = biological target: T2, Neutrophil elastase (Homo sapiens) (UniProt P08246); assay: Ratio of Kinact to KI for human neutrophil elastase
T2 sequence (whole entry): T1 sequence (P08246 whole entry)

pKi (Neutrophil elastase): 8.26 | Activity (Bos taurus): tde | Ratio [1]: 8.9 10^6/M/s
Structure (SMILES): CCCC1C(=O)N(COC(=O)c2c(Cl)cccc2Cl)S(=O)(=O)N1C (stereo not drawn)
